Assay results as given in paper PMC8802628, “Selective activation of PFKL suppresses the phagocytic oxidative burst” (Cell, 2021).

Assays:
GSDMD = target: T1, GSDMD (Homo sapiens, UniProt P57764); assay: TR-FRET liposome cargo release (GSDMD pore formation); assay type: biochemical; details: 10 μM
T1 sequence (P57764 1-484): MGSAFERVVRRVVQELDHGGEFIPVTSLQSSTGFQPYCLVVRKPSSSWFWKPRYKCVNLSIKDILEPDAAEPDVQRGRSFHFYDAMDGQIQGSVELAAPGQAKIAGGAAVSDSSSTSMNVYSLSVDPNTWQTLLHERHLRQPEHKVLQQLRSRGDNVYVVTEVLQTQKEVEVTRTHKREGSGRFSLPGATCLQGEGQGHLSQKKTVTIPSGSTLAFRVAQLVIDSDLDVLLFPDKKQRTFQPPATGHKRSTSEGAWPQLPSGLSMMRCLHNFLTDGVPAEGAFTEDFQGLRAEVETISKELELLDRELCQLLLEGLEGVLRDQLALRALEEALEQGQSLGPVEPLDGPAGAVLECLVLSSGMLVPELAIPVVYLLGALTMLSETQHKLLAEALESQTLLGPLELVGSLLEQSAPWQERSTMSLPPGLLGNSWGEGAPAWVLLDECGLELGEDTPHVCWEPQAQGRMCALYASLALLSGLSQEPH
Procedure: GSDMD-dependent liposome cargo release was conducted by Confluence Discovery Technologies with modifications to the procedure described previously ([Aglietti et al., 2016]). Briefly, liposomes with an encapsulated cargo of europium-chelate conjugated biotin were formed from a lipid mixture of DOPC:DOPE (1:1). 0.15 mg/mL of cargo-loaded liposomes were mixed with 0.3 μM of recombinant GSDMD and incubated with 10 μM LDC7559, 10 μM disulfiram or DMSO vehicle. 0.15 μM caspase-4 and 50 nM streptavidin-Alexa Fluor 647 were added and TR-FRET was read over 1 h using a PHERAstar FSX Microplate Reader (BMG Labtech) equipped with a TR-FRET module.

PFKL = target: T2, PFKL (Homo sapiens, UniProt P17858); assay: Thermal inactivation assay of PFKL; assay type: biochemical; details: 35°C; 200 μM FBP, 200 nM NA-11
T2 construct: made in house; host or cells: Sf9 insect cells (baculovirus, Bac-to-Bac)
T2 sequence (P17858 1-780): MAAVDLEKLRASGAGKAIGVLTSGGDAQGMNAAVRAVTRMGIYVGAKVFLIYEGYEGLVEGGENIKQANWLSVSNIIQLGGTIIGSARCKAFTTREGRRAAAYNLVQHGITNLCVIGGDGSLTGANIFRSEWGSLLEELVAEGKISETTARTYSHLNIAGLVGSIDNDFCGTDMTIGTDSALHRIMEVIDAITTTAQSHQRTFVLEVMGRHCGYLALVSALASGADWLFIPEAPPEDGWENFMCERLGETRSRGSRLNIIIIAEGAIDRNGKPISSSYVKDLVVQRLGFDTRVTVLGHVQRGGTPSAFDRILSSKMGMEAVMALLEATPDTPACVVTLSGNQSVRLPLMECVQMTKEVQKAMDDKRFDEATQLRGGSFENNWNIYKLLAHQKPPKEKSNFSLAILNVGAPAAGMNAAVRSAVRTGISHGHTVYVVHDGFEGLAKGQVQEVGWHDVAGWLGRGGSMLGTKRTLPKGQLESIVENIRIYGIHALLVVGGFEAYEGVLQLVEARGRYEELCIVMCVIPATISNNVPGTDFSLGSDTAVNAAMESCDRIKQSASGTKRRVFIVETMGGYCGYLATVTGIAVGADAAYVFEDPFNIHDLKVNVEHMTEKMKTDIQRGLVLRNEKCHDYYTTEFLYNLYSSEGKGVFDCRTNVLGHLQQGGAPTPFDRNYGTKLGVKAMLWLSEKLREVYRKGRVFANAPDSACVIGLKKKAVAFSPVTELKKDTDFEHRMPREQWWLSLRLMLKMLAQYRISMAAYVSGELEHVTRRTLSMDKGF
Procedure: Thermal inactivation assays were performed as previously described for PFKP, with modifications to account for the decreased stability of PFKL ([Sánchez-Martínez et al., 2000]). PFKL was diluted to 10 ng/mL, with a final buffer composition of 53.3 mM HEPES, 100 mM KCl, 0.167 mM DTT, 83.3 μM ammonium sulfate, 0.83% glycerol, 0.170 mM ATP, and 16.7 mM EDTA. Samples were incubated at 35°C. At the times indicated, samples were removed and residual PFK1 activity measured using the PK/LDH auxiliary enzyme assay described above with 125 μM ATP and 5 mM F6P. To determine if small molecule ligands altered PFKL stability, 200 μM FBP and 200 nM NA-11 were added.

[1] = tested on: human bronchial epithelial cells (HBECs); assay: Epithelial barrier tissue damage assay (FITC-dextran); assay type: cell-based; details: PMA-activated neutrophils on HBECs
Procedure: Human bronchial epithelial cells (HBECs) (4 × 10^4 in […] complete PneumaCult-Ex plus medium) were added to a HTS Transwell-96 permeable support plate (polyester membrane with a 0.4 μm pores) and immersed in receiver plates containing 150 μL of complete PneumaCult-Ex plus medium for 3 days. The medium on confluent monolayers was then replaced with RPMI medium containing neutrophils (4 × 10^4) in RPMI buffer that were previously treated with 5 μM NA-11, 100 μM apocynin, 5 μM NA-4, or DMSO vehicle and then activated with 100 nM PMA. The transwell plate was cultured in a new receiver plate containing 150 μL Hank’s balanced salt solution (HBSS) for 2 h. 10 μL of DMEM supplemented with 5% FBS and 2 mM L-glutamine were added to each well and the plate was incubated for additional 18 h. To measure the permeability of the epithelial barrier, FITC-dextran (200 μg/mL) and DNase-1 (22 Units/mL) were added to the apical side for 1 h. FITC-dextran in the receiver plate was measured (ex: 494 em: 521).

Q: For `COc1ccccc1-c1cc2n(n1)Cc1ccc(NC(C)=O)cc1OC2` [LDC7559, reference compound], which “liposome permeabilization by GSDMD pore-forming fragment” value (GSDMD) is on record?
A: nor did it prevent the GSDMD pore-forming fragment from permeabilizing liposomes

Q: Which “protection of PFKL from thermal inactivation” value (PFKL) does the source give for `CC(=O)Nc1ccc2c(c1)OCc1cc(-c3ccccc3C#CCCCO)nn1C2` [NA-11] here?
A: did not

Q: What about the “protection of epithelial layer from neutrophil-induced oxidative damage” value [1] of the same compound?
A: protected the epithelial layer
